Measured values as given in article PMC5527305, “Prevention of Ophthalmia Neonatorum Caused by Neisseria gonorrhoeae Using a Fatty Acid-Based Formulation” (mBio, 2017).

Columns and labels:
bovine cornea = assay: Bovine corneal opacity and permeability (BCOP) test
Procedure: Bovine eyes were collected from a local slaughter house (ABP, Guildford, Surrey, United Kingdom) and were transported in cold saline solution for testing at the laboratory. Each eye was first visually examined for signs of damage before use. The test was conducted as detailed by Abdelkader and coworkers ([21]). The exposure time of the test substances was 30 s. The selected bactericidal compounds were tested at 1 mM in saline solution, with a corresponding vehicle control (1% ethanol–saline solution) also performed. […] The test area of the cornea was then washed with 10 ml saline solution. Corneal damage to the test area was assessed by fluorescein staining and examination under a cobalt blue filter. Pathological scoring based on opacity, epithelial integrity, and epithelial detachment was done in accordance with previous publications ([19]). Each of the seven lead candidates was tested in triplicate, and each test was performed on a separate day using a different batch of eyeballs. Corneal histology was done as outlined by Abdelkader and coworkers ([21]) by evaluating the damage to the epithelial layer and stroma of the cornea after hematoxylin and eosin staining.

bovine RBCs = assay: Red blood cell (RBC) lysis assay; assay type: cell-based
Procedure: Whole bovine blood was obtained from a local slaughter house (ABP), adding 90 ml blood to 10 ml 110 mM trisodium citrate anticoagulant. RBCs were isolated the same day. The RBCs were washed by three repeats of centrifugation (1,500 × g for 10 min) and resuspension in phosphate-buffered saline (PBS) with 10 mM glucose (PBSG). Testing was done following the guidelines of the European Union Reference Laboratory for alternatives to animal testing (EURL-ECVAM) ([22]). The organic acids were solubilized in dimethyl sulfoxide (DMSO) and diluted to a maximum DMSO concentration of 10%. In a 2-ml centrifuge tube, 750 µl of the sample was added to 250 µl RBCs. Controls used in the assay were a complete lysis control (deionized water) and a fragility control (PBSG–10% DMSO). Samples were shaken at room temperature for 1 h and then centrifuged at 14,000 × g for 2 min. An aliquot of 750 µl of the supernatant was taken and its absorbance at 451 nm measured.

CCCCCCCCCC(=O)OCC(O)CO (stereo not shown) [Monocaprin]
Mean cumulative BCOP score (bovine cornea; 1 mM in saline solution, 30 s exposure, triplicate): lower than 0.5 | Fluorescein staining of cornea (bovine cornea; 1 mM, around rubber application ring): any sign of fluorescein staining | BCOP irritancy classification (bovine cornea; candidates 1 mM in saline, controls 0.5 M NaOH, 100% acetone, 30 s exposure): nonirritants | H50 concentration relative to MBC (bovine RBCs): greater than their MBCs
